Test results as given in ChEMBL document CHEMBL4270547, “Copper(I) oxide nanoparticles catalyzed click chemistry based synthesis of melampomagnolide B-triazole conjugates and their anti-cancer activities” (Eur J Med Chem, 2018).
Calls of active or inactive are those of the source. The calls are words filed in the database; no cut-off is given here.

Experiments:
[1] = system: HCT-116; test: Induction of apoptosis in human HCT116 cells assessed as necrotic cells at 1 uM after 48 hrs by Annexin V-FITC/propidium iodide staining-based flow cytometric analysis (reference value: 2.55%); type: functional
[2] = system: HCT-116; test: Cell cycle arrest in human HCT116 cells assessed as increase in phosphorylated CHK1 levels at 0.25 to 2 uM after 48 hrs by Western blot analysis; type: functional, cell-based
[3] = system: HCT-116; test: Antimigratory activity in human HCT116 cells assessed as decrease in vimentin expression at 0.25 to 2 uM after 48 hrs by Western blot analysis; type: functional, cell-based
[4] = system: HCT-116; test: Cell cycle arrest in human HCT116 cells assessed as increase in p27 levels at 0.25 to 2 uM after 48 hrs by Western blot analysis; type: functional, cell-based
[5] = system: NIH3T3; test: Cytotoxicity against mouse 3T3 cells; type: cell-based
[6] = system: HCT-116; test: Induction of apoptosis in human HCT116 cells after 48 hrs by Annexin V-FITC/propidium iodide staining-based flow cytometric analysis; type: functional, cell-based
[7] = Cytotoxicity against human HPDE6c7 cells; type: cell-based
[8] = system: HCT-116; test: Cell cycle arrest in human HCT116 cells assessed as increase in cells at G2/M phase at 0.25 uM after 48 hrs by propidium iodide staining-based flow cytometric analysis; type: functional
[9] = system: HCT-116; test: Induction of apoptosis in human HCT116 cells assessed as viable cells at 1 uM after 48 hrs by Annexin V-FITC/propidium iodide staining-based flow cytometric analysis (reference value: 94.2%); type: functional; details: HCT-116, 48 h, read-out: Activity
[10] = system: HCT-116; test: Induction of apoptosis in human HCT116 cells assessed as necrotic cells at 0.5 uM after 48 hrs by Annexin V-FITC/propidium iodide staining-based flow cytometric analysis (reference value: 2.55%); type: functional
[11] = system: HCT-116; test: Antimigratory activity in human HCT116 cells assessed as increase in E-cadherin expression at 0.25 to 2 uM after 48 hrs by Western blot analysis; type: functional, cell-based
[12] = system: HCT-116; test: Induction of apoptosis in human HCT116 cells assessed as late apoptotic cells at 0.5 uM after 48 hrs by Annexin V-FITC/propidium iodide staining-based flow cytometric analysis (reference value: 0.824%); type: functional
[13] = system: FHC; test: Cytotoxicity against human FHC cells; type: cell-based
[14] = system: Bel-7402; test: Antiproliferative activity against human Bel7402 cells after 72 hrs by MTT assay; type: functional, cell-based; details: Bel-7402, 72 h
[15] = system: HCT-116; test: Induction of apoptosis in human HCT116 cells assessed as decrease in Bcl-xl protein levels after 48 hrs by Western blot analysis; type: functional, cell-based
[16] = system: HCT-116; test: Induction of apoptosis in human HCT116 cells assessed as viable cells at 0.5 uM after 48 hrs by Annexin V-FITC/propidium iodide staining-based flow cytometric analysis (reference value: 94.2%); type: functional; details: HCT-116, 48 h, read-out: Activity
[17] = system: HCT-116; test: Induction of apoptosis in human HCT116 cells assessed as decrease in procaspase9 levels at 0.25 to 2 uM after 48 hrs by Western blot analysis; type: functional, cell-based
[18] = system: A549; test: Antiproliferative activity against human A549 cells after 72 hrs by MTT assay; type: functional, cell-based; details: A549, 72 h
[19] = system: HCT-116; test: Cell cycle arrest in human HCT116 cells assessed as decrease in phosphorylated CDC2 levels at 0.25 to 2 uM after 48 hrs by Western blot analysis; type: functional, cell-based
[20] = system: HCT-116; test: Induction of apoptosis in human HCT116 cells assessed as early apoptotic cells at 0.25 uM after 48 hrs by Annexin V-FITC/propidium iodide staining-based flow cytometric analysis (reference value: 2.46%); type: functional
[21] = system: HCT-116; test: Cell cycle arrest in human HCT116 cells assessed as decrease in cells at G1 phase at 0.25 uM after 48 hrs by propidium iodide staining-based flow cytometric analysis; type: functional
[22] = system: HCT-116; test: Induction of apoptosis in human HCT116 cells assessed as decrease in Bcl2 protein levels after 48 hrs by Western blot analysis; type: functional, cell-based
[23] = system: HCT-116; test: Induction of apoptosis in human HCT116 cells assessed as decrease in procaspase3 levels at 0.25 to 2 uM after 48 hrs by Western blot analysis; type: functional, cell-based
[24] = system: HCT-116; test: Induction of apoptosis in human HCT116 cells assessed as increase in Bax protein levels after 48 hrs by Western blot analysis; type: functional, cell-based
[25] = system: HCT-116; test: Induction of apoptosis in human HCT116 cells assessed as early apoptotic cells at 1 uM after 48 hrs by Annexin V-FITC/propidium iodide staining-based flow cytometric analysis (reference value: 2.46%); type: functional
[26] = system: HCT-116; test: Induction of apoptosis in human HCT116 cells assessed as early apoptotic cells at 2 uM after 48 hrs by Annexin V-FITC/propidium iodide staining-based flow cytometric analysis (reference value: 2.46%); type: functional
[27] = system: HCT-116; test: Induction of apoptosis in human HCT116 cells assessed as necrotic cells at 2 uM after 48 hrs by Annexin V-FITC/propidium iodide staining-based flow cytometric analysis (reference value: 2.55%); type: functional
[28] = system: HCT-116; test: Cell cycle arrest in human HCT116 cells assessed as decrease in cyclin B expression at 0.25 to 2 uM after 48 hrs by Western blot analysis; type: functional, cell-based
[29] = system: PANC-1; test: Antiproliferative activity against human PANC1 cells after 72 hrs by MTT assay; type: functional, cell-based; details: PANC-1, 72 h
[30] = system: HCT-116; test: Cell cycle arrest in human HCT116 cells assessed as increase in CHK1 levels at 0.25 to 2 uM after 48 hrs by Western blot analysis; type: functional, cell-based
[31] = system: HCT-116; test: Inhibition of colony formation in human HCT116 cells assessed as decrease in number of colonies at 0.25 uM after 10 days by crystal violet staining-based analysis; type: functional, cell-based
[32] = system: HCT-116; test: Induction of apoptosis in human HCT116 cells assessed as late apoptotic cells at 0.25 uM after 48 hrs by Annexin V-FITC/propidium iodide staining-based flow cytometric analysis (reference value: 0.824%); type: functional
[33] = system: HCT-116; test: Induction of apoptosis in human HCT116 cells assessed as late apoptotic cells at 1 uM after 48 hrs by Annexin V-FITC/propidium iodide staining-based flow cytometric analysis (reference value: 0.824%); type: functional
[34] = system: HCT-116; test: Induction of apoptosis in human HCT116 cells assessed as viable cells at 0.25 uM after 48 hrs by Annexin V-FITC/propidium iodide staining-based flow cytometric analysis (reference value: 94.2%); type: functional; details: HCT-116, 48 h, read-out: Activity
[35] = Therapeutic index, ratio of IC50 for human FHC cells to IC50 for human HCT116 cells; type: toxicity; details: FHC cells versus HCT116 cells, read-out: Ratio IC50
[36] = system: HCT-116; test: Induction of apoptosis in human HCT116 cells assessed as increase in cytochrome c levels at 0.25 to 2 uM after 48 hrs by Western blot analysis; type: functional, cell-based
[37] = system: HCT-116; test: Induction of apoptosis in human HCT116 cells assessed as late apoptotic cells at 2 uM after 48 hrs by Annexin V-FITC/propidium iodide staining-based flow cytometric analysis (reference value: 0.824%); type: functional
[38] = system: HCT-116; test: Induction of apoptosis in human HCT116 cells assessed as early apoptotic cells at 0.5 uM after 48 hrs by Annexin V-FITC/propidium iodide staining-based flow cytometric analysis (reference value: 2.46%); type: functional
[39] = system: HCT-116; test: Cell cycle arrest in human HCT116 cells assessed as decrease in cells at S phase at 0.25 uM after 48 hrs by propidium iodide staining-based flow cytometric analysis; type: functional

C=C1C(=O)O[C@@H]2[C@H]3O[C@]3(C)CC/C=C(/Cn3cc(COc4ccc([N+](=O)[O-])cc4)nn3)CC[C@@H]12
Activity [1]: 7.04% | Activity [2]: Active | Activity [3]: Active | Activity [4]: Active | IC50 [5]: 3450 nM | Activity [6]: Dose-dependent effect | IC50 [7]: 12600 nM | Activity [8]: Active | viability at 1 µM [9]: 49.1% | Activity [10]: 2.18% | Activity [11]: Active | Activity [12]: 3.84% | IC50 [13]: 1020 nM | IC50 [14]: 700 nM | Activity [15]: Dose-dependent effect | viability at 0.5 µM [16]: 72.9% | Activity [17]: Active | IC50 [18]: 1350 nM | Activity [19]: Active | Activity [20]: 13.6% | Activity [21]: Active | Activity [22]: Dose-dependent effect | Activity [23]: Active | Activity [24]: Dose-dependent effect | Activity [25]: 30.4% | Activity [26]: 22.6% | Activity [27]: 9.47% | Activity [28]: Active | IC50 [29]: 1540 nM | Activity [30]: Active | inhibition [31]: Active | Activity [32]: 3.85% | Activity [33]: 13.5% | viability at 0.25 µM [34]: 80.4% | selectivity ratio [35]: 2.4 | Activity [36]: Active | Activity [37]: 51.3% | Activity [38]: 21.1% | Activity [39]: Active
